In PMC4457528, “Identification of Novel Small Molecule Inhibitors of Oncogenic RET Kinase” (PLoS ONE, 2015):
Like-named read-outs stand apart in the source and are kept apart here.

Experiments:
Assay in all cases: KinomeScan kinase panel, single concentration 10 µM
Format in all cases: binding
KinomeScan kinase panel [1] = biological target: T1, KinomeScan kinase panel (Homo sapiens, UniProt Q96NX5); conditions: CAMK1G, 10 µM; read-out: score (%)
T1 construct: purchased DiscoveRx (KinomeScan)

KinomeScan kinase panel [2] = biological target: T2, KinomeScan kinase panel (Homo sapiens, UniProt O43353); conditions: read-out: score (%)
T2 construct: purchased DiscoveRx (KinomeScan)

KinomeScan kinase panel [3] = biological target: T3, KinomeScan kinase panel (Homo sapiens, UniProt Q9NQU5); conditions: PAK6, 10 µM; read-out: score (%)
T3 construct: purchased DiscoveRx (KinomeScan)

KinomeScan kinase panel [4] = biological target: T4, KinomeScan kinase panel (Homo sapiens, UniProt P53667); conditions: LIMK1, 10 µM; read-out: score (%)
T4 construct: purchased DiscoveRx (KinomeScan)

KinomeScan kinase panel [5] = biological target: T5, KinomeScan kinase panel (Homo sapiens, UniProt P10721, D816V); conditions: KIT(D816V), 10 µM; read-out: score (%)
T5 construct: purchased DiscoveRx (KinomeScan)

KinomeScan kinase panel [6] = biological target: T6, KinomeScan kinase panel (Homo sapiens, UniProt P31152); conditions: ERK4, 10 µM; read-out: score (%)
T6 construct: purchased DiscoveRx (KinomeScan)

KinomeScan kinase panel [7] = biological target: T7, KinomeScan kinase panel (Homo sapiens, UniProt O15146); conditions: MUSK, 10 µM; read-out: score (%)
T7 construct: purchased DiscoveRx (KinomeScan)
T7 sequence (O15146 24-869): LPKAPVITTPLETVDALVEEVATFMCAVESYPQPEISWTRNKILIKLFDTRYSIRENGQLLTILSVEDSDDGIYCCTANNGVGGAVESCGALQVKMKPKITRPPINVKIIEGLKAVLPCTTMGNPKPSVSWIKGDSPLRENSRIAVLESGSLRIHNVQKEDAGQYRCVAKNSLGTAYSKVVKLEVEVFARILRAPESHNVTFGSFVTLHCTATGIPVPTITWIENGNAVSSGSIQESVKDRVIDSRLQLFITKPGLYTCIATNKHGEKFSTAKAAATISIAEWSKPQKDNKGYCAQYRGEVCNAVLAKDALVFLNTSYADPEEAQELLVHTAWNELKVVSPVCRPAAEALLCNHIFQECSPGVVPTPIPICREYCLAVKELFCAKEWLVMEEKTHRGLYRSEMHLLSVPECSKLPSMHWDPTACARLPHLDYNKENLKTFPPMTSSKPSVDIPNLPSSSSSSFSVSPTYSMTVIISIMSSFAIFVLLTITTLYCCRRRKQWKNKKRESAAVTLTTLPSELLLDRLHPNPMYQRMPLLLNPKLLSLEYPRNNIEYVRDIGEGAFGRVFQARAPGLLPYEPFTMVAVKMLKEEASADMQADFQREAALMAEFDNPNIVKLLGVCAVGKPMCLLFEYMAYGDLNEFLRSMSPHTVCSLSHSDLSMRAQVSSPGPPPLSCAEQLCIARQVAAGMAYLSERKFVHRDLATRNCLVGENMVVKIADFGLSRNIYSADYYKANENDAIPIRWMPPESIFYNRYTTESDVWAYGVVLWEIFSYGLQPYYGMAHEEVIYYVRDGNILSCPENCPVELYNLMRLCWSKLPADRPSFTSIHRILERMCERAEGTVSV

KinomeScan kinase panel [8] = biological target: T8, KinomeScan kinase panel (Homo sapiens, UniProt Q8NEV4); conditions: MYO3A, 10 µM; read-out: score (%)
T8 construct: purchased DiscoveRx (KinomeScan)

KinomeScan kinase panel [9] = biological target: T9, KinomeScan kinase panel (Homo sapiens, UniProt P49841); conditions: GSK3B, 10 µM; read-out: score (%)
T9 construct: purchased DiscoveRx (KinomeScan)

KinomeScan kinase panel [10] = biological target: T10, KinomeScan kinase panel (Homo sapiens, UniProt P41240); conditions: CSK, 10 µM
T10 construct: purchased DiscoveRx (KinomeScan)

KinomeScan kinase panel [11] = biological target: T11, KinomeScan kinase panel (Homo sapiens, UniProt Q13554); conditions: CAMK2B, 10 µM; read-out: score (%)
T11 construct: purchased DiscoveRx (KinomeScan)

KinomeScan kinase panel [12] = biological target: T12, KinomeScan kinase panel (Homo sapiens, UniProt Q9P286); conditions: read-out: score (%)
T12 construct: purchased DiscoveRx (KinomeScan)

KinomeScan kinase panel [13] = biological target: T13, KinomeScan kinase panel (Homo sapiens, UniProt P30291); conditions: kinase WEE1; 10 µM; read-out: score (%)
T13 construct: purchased DiscoveRx (KinomeScan)

KinomeScan kinase panel [14] = biological target: T14, KinomeScan kinase panel (Homo sapiens, UniProt Q92918); conditions: read-out: score (%)
T14 construct: purchased DiscoveRx (KinomeScan)

KinomeScan kinase panel [15] = biological target: T15, KinomeScan kinase panel (Homo sapiens, UniProt P08069); conditions: IGF1R, 10 µM; read-out: score (%)
T15 construct: purchased DiscoveRx (KinomeScan)

KinomeScan kinase panel [16] = biological target: T16, KinomeScan kinase panel (Homo sapiens, UniProt P49674); conditions: CSNK1E, 10 µM; read-out: score (%)
T16 construct: purchased DiscoveRx (KinomeScan)

KinomeScan kinase panel [17] = biological target: T17, KinomeScan kinase panel (Homo sapiens, UniProt P51812); conditions: 10 µM, read-out: score (%)
T17 construct: purchased DiscoveRx (KinomeScan)

KinomeScan kinase panel [18] = biological target: T18, KinomeScan kinase panel (Homo sapiens, UniProt Q9UQB9); conditions: AURKC, 10 µM; read-out: score (%)
T18 construct: purchased DiscoveRx (KinomeScan)
T18 sequence (Q9UQB9 1-309): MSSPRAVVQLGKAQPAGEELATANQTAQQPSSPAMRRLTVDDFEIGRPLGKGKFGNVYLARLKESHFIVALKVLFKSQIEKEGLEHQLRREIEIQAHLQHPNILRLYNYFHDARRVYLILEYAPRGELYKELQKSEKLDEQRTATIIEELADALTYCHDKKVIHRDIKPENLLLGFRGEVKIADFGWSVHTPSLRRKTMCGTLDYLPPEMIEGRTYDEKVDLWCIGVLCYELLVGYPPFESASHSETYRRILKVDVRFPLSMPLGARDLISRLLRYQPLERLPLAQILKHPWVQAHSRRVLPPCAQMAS

KinomeScan kinase panel [19] = biological target: T19, KinomeScan kinase panel (Homo sapiens, UniProt P29317); conditions: EPHA2, 10 µM; read-out: score (%)
T19 construct: purchased DiscoveRx (KinomeScan)

KinomeScan kinase panel [20] = biological target: T20, KinomeScan kinase panel (Homo sapiens, UniProt P50613); conditions: CDK7, 10 µM; read-out: score (%)
T20 construct: purchased DiscoveRx (KinomeScan)

KinomeScan kinase panel [21] = biological target: T21, KinomeScan kinase panel (Homo sapiens, UniProt Q8TDX7); conditions: NEK7, 10 µM; read-out: score (%)
T21 construct: purchased DiscoveRx (KinomeScan)
T21 sequence (Q8TDX7 whole entry): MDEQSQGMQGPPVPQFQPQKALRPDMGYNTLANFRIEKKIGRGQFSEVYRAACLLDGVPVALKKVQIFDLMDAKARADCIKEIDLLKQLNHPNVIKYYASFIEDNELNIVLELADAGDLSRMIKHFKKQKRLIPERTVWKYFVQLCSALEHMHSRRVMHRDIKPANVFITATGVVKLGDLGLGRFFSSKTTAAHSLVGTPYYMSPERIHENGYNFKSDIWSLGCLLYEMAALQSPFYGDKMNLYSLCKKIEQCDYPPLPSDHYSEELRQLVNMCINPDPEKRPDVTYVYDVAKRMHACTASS

T16 sequence (P49674 whole entry): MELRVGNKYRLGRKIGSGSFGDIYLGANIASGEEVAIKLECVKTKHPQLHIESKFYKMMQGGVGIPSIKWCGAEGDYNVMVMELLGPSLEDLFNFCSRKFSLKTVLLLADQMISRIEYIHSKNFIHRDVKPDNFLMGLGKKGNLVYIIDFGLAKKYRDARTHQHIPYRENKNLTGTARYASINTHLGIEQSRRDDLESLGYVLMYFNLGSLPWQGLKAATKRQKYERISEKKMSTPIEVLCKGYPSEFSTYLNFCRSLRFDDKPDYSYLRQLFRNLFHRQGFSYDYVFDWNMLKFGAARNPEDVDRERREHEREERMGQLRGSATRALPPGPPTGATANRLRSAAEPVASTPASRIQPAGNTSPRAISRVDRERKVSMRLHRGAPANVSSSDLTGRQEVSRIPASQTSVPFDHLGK
T9 sequence (P49841 whole entry): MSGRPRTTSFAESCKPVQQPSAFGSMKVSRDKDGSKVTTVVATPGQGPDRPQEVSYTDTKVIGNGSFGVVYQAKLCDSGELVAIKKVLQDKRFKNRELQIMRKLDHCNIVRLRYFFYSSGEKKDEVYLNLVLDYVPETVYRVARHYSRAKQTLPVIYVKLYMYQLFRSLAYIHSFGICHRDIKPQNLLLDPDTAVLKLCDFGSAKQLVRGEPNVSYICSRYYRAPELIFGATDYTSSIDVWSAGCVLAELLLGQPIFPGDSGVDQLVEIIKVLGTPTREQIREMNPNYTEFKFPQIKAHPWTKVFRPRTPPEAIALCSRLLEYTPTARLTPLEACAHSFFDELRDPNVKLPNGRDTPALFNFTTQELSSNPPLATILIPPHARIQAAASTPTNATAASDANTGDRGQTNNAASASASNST
T4 sequence (P53667 whole entry): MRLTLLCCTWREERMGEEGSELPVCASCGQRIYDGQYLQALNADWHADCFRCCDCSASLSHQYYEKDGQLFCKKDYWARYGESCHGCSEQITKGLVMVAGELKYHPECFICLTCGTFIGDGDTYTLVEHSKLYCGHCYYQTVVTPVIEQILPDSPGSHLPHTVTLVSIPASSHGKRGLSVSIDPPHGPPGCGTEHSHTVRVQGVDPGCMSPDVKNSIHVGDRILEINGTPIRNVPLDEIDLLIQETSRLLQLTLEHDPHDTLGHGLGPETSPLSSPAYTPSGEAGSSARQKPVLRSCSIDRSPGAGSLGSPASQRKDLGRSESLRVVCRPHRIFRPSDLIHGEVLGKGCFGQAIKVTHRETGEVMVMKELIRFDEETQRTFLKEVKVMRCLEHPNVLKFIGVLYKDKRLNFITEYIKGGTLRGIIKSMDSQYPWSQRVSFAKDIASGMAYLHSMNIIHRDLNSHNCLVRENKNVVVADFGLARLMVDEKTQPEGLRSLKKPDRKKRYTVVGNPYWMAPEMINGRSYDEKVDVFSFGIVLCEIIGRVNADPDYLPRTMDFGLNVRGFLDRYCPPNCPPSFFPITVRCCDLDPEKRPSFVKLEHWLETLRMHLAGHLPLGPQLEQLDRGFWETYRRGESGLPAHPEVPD
T15 sequence (P08069 31-1367): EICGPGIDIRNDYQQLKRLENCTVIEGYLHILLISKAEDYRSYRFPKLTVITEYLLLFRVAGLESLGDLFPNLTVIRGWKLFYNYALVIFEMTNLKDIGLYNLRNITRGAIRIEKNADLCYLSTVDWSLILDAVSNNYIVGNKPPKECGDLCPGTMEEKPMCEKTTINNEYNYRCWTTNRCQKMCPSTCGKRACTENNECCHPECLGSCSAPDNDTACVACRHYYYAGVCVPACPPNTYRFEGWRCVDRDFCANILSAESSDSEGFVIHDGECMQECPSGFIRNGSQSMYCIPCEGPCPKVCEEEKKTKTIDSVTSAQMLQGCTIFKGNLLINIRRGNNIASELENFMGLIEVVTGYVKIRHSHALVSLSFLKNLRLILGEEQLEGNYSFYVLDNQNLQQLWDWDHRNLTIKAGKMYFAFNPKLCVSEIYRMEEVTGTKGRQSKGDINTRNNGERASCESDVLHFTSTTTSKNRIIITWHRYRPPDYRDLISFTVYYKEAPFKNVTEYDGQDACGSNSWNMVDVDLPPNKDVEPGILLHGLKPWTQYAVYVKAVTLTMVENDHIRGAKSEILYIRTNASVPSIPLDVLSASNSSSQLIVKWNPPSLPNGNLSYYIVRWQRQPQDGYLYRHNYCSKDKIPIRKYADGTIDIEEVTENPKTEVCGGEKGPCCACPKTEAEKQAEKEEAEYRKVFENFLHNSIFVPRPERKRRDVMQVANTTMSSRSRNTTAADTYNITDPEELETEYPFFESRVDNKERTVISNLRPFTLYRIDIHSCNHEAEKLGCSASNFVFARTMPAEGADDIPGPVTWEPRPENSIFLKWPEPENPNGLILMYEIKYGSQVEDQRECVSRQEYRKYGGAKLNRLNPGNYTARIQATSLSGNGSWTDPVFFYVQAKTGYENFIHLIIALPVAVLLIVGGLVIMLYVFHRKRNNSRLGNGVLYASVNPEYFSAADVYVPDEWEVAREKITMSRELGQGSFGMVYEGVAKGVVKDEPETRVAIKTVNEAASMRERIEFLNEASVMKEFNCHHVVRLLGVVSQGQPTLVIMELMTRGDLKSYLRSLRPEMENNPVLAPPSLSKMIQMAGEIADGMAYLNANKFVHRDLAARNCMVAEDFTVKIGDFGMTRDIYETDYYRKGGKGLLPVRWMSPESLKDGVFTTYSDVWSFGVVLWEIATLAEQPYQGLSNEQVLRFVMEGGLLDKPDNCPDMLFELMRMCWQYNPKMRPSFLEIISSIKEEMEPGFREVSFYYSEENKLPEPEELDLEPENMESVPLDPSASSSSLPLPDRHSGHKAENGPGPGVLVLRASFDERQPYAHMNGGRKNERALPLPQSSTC
T6 sequence (P31152 whole entry): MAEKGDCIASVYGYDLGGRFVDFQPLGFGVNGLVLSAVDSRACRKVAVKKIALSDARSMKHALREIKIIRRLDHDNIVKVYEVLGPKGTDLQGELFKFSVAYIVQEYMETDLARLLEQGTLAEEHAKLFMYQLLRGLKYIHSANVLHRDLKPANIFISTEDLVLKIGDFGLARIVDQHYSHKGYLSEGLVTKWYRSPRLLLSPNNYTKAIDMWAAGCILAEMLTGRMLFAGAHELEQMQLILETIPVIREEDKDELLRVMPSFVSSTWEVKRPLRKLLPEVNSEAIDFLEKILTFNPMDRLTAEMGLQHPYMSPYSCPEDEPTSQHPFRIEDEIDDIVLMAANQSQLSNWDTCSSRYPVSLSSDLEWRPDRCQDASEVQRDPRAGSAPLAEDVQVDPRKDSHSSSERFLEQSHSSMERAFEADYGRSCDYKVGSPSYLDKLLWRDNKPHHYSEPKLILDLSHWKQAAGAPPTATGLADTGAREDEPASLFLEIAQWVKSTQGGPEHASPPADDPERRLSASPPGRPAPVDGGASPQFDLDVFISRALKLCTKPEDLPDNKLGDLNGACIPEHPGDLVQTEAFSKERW
T2 sequence (O43353 whole entry): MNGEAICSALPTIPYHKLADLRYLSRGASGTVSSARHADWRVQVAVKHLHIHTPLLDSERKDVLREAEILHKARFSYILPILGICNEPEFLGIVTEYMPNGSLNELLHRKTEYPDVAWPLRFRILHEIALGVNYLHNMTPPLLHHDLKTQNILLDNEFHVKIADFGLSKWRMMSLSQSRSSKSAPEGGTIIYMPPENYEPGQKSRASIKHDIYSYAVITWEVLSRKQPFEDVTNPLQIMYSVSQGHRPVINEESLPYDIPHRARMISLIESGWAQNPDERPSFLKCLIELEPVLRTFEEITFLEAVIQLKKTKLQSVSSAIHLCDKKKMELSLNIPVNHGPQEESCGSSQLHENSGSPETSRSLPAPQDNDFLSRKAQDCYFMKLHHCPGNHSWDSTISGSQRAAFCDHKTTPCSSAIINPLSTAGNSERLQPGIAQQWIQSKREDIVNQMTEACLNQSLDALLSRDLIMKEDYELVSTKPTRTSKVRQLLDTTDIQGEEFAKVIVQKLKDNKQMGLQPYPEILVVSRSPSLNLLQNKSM
T10 sequence (P41240 whole entry): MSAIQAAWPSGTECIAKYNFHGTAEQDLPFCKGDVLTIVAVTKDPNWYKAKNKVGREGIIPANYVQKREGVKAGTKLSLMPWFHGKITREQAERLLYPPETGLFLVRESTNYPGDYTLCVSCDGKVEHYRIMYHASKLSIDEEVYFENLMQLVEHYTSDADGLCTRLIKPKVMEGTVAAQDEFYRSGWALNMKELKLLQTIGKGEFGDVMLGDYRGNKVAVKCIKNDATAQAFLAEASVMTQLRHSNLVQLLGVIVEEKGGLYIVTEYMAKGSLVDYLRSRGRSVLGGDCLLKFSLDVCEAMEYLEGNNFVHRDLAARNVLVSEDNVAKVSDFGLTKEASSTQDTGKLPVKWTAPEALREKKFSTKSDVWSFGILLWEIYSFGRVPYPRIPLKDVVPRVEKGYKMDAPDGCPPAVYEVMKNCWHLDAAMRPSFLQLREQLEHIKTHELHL

SMILES	remaining binding at 10 µM (KinomeScan kinase panel [1]) [%]	remaining binding at 10 µM (KinomeScan kinase panel [2]; RIPK2, 10 µM) [%]	remaining binding at 10 µM (KinomeScan kinase panel [3]) [%]	remaining binding at 10 µM (KinomeScan kinase panel [4]) [%]	remaining binding at 10 µM (KinomeScan kinase panel [5]) [%]	remaining binding at 10 µM (KinomeScan kinase panel [6]) [%]	remaining binding at 10 µM (KinomeScan kinase panel [7]) [%]	remaining binding at 10 µM (KinomeScan kinase panel [8]) [%]	remaining binding at 10 µM (KinomeScan kinase panel [9]) [%]	score (%) (KinomeScan kinase panel [10])	remaining binding at 10 µM (KinomeScan kinase panel [11]) [%]	remaining binding at 10 µM (KinomeScan kinase panel [12]; PAK7, 10 µM) [%]	remaining binding at 10 µM (KinomeScan kinase panel [13]) [%]	remaining binding at 10 µM (KinomeScan kinase panel [14]; HPK1, 10 µM) [%]	remaining binding at 10 µM (KinomeScan kinase panel [15]) [%]	remaining binding at 10 µM (KinomeScan kinase panel [16]) [%]	remaining binding at 10 µM (KinomeScan kinase panel [18]) [%]	remaining binding at 10 µM (KinomeScan kinase panel [19]) [%]	remaining binding at 10 µM (KinomeScan kinase panel [20]) [%]	remaining binding at 10 µM (KinomeScan kinase panel [21]) [%]	further results
CCN1CCN(Cc2ccc(NC(=O)c3ccc(C)c(NC(=O)c4cncc(-c5cccs5)c4)c3)cc2C(F)(F)F)CC1 [ALW-II-41-27]	> 30	3.1	> 30	23	0.75	> 30	0.1	17	> 30	0.65	> 30	> 30	> 30	0.75	> 30	0.8	> 30	0.15	26	> 30	remaining binding at 10 µM (KinomeScan kinase panel [17]; kinase RPS6KA3(Kin.Dom.1-N-terminal)): > 30%
CCN1CCN(Cc2ccc(NC(=O)c3ccc(C)c(C#Cc4cccnc4)c3)cc2C(F)(F)F)CC1 [XMD15-44]	> 30	–	100	3	2	> 30	0.05	3.2	> 30	0.15	> 30	83	100	0.4	> 30	> 30	13	0.4	1.6	88	remaining binding at 10 µM (KinomeScan kinase panel [2]; kinase RIPK2, 10 µM): 0.45%; remaining binding at 10 µM (KinomeScan kinase panel [17]; kinase RSK2(Kin.Dom.1-N-terminal)): 16%
CCN1CCN(Cc2ccc(NC(=O)c3ccc(C)c(/C=C/c4cnc5[nH]ccc5c4Cl)c3)cc2C(F)(F)F)CC1 [HG-6-63-01, (E)-3-(2-(4-chloro-1H-pyrrolo[2,3-b]pyridin-5-yl)vinyl)-N-(4-((4-ethylpiperazin-1-yl)methyl)-3-(trifluoromethyl)phenyl)-4-methylbenzamide]	> 30	1.6	> 30	4.1	0.3	> 30	0.05	> 30	> 30	2.1	> 30	–	> 30	–	> 30	15	0.65	0.25	> 30	> 30	remaining binding at 10 µM (KinomeScan kinase panel [12]; PAK7/PAK5, 10 µM): > 30%; remaining binding at 10 µM (KinomeScan kinase panel [14]; MAP4K1, 10 µM): 0.1%; remaining binding at 10 µM (KinomeScan kinase panel [17]; RPS6KA3(Kin.Dom.1)): > 30%
